# Results from ChEMBL document CHEMBL1138140, “Inhibition of DNA helicases with DNA-competitive inhibitors” (Bioorg Med Chem Lett, 2006).
# How the values were obtained:
# Assay type in all cases: functional
# [1] = molecular target: T1, DNA helicase IV (Escherichia coli K-12) (UniProt P15038); assay: Inhibition of ATPase activity of Helicase4 from Escherichia coli at 10 uM
# T1 sequence (whole entry): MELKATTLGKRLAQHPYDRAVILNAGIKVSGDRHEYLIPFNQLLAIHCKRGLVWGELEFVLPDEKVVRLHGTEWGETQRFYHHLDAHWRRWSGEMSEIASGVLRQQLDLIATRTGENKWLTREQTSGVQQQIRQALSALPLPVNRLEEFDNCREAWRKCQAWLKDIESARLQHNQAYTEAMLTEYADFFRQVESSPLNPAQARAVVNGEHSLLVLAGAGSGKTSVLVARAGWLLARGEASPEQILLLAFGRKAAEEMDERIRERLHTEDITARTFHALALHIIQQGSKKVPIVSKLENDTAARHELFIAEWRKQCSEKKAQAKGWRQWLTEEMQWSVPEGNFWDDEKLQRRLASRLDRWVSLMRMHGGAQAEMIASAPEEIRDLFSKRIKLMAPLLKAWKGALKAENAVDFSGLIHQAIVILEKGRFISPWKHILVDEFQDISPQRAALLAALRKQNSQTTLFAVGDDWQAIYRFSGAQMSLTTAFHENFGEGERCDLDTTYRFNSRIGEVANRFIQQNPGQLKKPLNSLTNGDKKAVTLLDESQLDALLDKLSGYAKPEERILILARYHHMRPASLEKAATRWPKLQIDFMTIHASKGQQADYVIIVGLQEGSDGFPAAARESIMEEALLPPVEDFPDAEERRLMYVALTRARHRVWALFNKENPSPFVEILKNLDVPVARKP
# [2] = molecular target: T1, DNA helicase IV (Escherichia coli K-12); assay: Inhibition of helicase activity of Helicase4 from Escherichia coli at 10 uM
# DNA helicase IV [3] = molecular target: T2, DNA helicase IV (Escherichia coli K-12, UniProt P15038); assay: Inhibition of ATPase activity of Helicase4 from Escherichia coli in presence of ATP (5x Km(ATP)) and dT25 (5x KDNA)
# T2 sequence (P15038 whole entry): T1 sequence (whole entry)
# DNA helicase IV [4] = molecular target: DNA helicase IV (Escherichia coli K-12, UniProt P15038, Y473A); assay: Inhibition of ATPase activity of Tyr473Ala mutated Helicase4 in presence of ATP (5x Km(ATP)) and dT25 (5x KDNA)
# DNA helicase IV (Escherichia coli K-12, UniProt P15038, Y473A), sequence (P15038 whole entry Y473A): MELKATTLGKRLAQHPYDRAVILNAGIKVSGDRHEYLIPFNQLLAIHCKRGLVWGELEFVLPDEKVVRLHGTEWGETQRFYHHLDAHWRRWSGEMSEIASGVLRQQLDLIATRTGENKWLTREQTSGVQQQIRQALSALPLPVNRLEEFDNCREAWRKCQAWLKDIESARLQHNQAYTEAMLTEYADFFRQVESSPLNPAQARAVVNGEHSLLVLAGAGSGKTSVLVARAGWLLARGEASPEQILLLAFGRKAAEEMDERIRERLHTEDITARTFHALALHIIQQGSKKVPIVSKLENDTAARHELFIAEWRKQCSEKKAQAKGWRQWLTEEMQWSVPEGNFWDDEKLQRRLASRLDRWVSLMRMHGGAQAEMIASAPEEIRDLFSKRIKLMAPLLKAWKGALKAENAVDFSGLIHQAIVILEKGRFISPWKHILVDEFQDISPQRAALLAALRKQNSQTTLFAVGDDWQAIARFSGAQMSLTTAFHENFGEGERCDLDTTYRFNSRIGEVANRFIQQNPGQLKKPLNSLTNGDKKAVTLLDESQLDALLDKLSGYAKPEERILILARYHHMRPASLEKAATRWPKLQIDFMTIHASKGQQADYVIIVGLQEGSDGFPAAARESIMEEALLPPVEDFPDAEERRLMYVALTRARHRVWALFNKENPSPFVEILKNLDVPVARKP
Structure (SMILES),inhibition [1] [%],inhibition [2] [%],IC50 (DNA helicase IV [3]) [µM],IC50 (DNA helicase IV [4]) [µM]
CCOC(=O)Cc1ccc2c(c1)C(=O)c1ccccc1CS2,0,5,,
O=C(O)Cc1ccc2c(c1)C(=O)c1ccccc1C[S+]2[O-] (configuration not stated),2,0,,
CC(C(=O)O)c1ccc2c(c1)C(=O)c1ccccc1CS2 (configuration not stated),98,93,3,
Cc1ccc2c(c1)CSc1ccc(CC(=O)O)cc1C2=O,78,53,7,
O=C(O)Cc1ccc2c(c1)C(=O)c1ccccc1CS2,93,79,5,5.5
CC(=O)Nc1ccc2c(c1)C(=O)c1cc(CC(=O)O)ccc1SC2,99,89,1.4,
